Measurements reported in US11591288B2, “Compositions and methods for treating atherosclerotic cardiovascular disease” (GAVISH-GALILEE BIO APPLICATIONS LTD., priority 2017, dated 2023).

Key:
[1] = test system: J774A.1 macrophages; assay: Ox-LDL-induced foam cell formation, Oil Red O staining; format: cell-based, murine
Description: J774A.1 macrophage cells were grown in RPMI 1640 media containing 10% FBS in cell culture flask till ˜90% confluence (37° C. incubator containing 5% CO2). The cells were incubated at 37° C. overnight under sterile conditions, approximately 1×10^5 J774.1 cells/well in a 96-well plate. Macrophage cells were incubated for an additional 24 h with lyso-DGTS (50 and 100 μg/ml), rePON1 (50 μg/ml), or rePON1 preincubated with different concentrations of lyso-DGTS (10, 20, 50 and 100 μg/ml). The cells were washed and ox-LDL (25 μg/ml in a RPMI medium) was added for another 24 h to yield foam cells. The cells were washed 3 times with PBS, following fixation with 4% formaldehyde for 10 min, the cells were stained with Oil Red O (0.35 mg/100 ml in 60% isopropanol; Sigma-Aldrich) for 15 min at 37° C. to evaluate the characteristic lipid accumulation in macrophage-derived foam cells. Foam cell formation was observed under microscope.
The density of lipid content was evaluated by alcohol extraction after staining. The absorbance at 514 nm was measured using microplate reader (Infinite M200 PRO fluorescence spectrophotometer (Tecan)).
Macrophages uptake of ox-LDL, forming foam cell, is the hallmark of atherogenesis. The ability of lyso-DGTS or rePON1 incubated with lyso-DGTS to attenuate foam cell formation was examined. […]

[2] = molecular target: T1, serum PON1 (Mus musculus, UniProt P52430); assay: Serum PON1 lactonase activity of Balb/c mice fed with high fat diet; format: in vivo; details: HFD mice, lyso-DGTS 1.43 mg/ml via s.c. osmotic mini-pump, 28 days; vs vehicle
T1 construct: from tissue; host or cells: serum of Balb/c mice
T1 sequence (P52430 whole entry): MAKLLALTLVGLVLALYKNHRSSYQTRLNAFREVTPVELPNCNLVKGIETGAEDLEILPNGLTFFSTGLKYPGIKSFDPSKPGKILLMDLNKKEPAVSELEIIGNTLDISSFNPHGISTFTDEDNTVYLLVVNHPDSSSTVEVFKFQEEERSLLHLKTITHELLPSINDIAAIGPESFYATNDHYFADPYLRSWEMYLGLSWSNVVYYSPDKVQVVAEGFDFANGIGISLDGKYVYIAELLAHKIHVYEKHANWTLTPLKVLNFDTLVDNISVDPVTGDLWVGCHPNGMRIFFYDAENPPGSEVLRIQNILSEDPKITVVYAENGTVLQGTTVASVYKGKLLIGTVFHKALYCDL
Description: (§1) Eight weeks old Balb/c mice where fed with normal rodent diet (the “non” group n=11) for 12 weeks or with high-fat diet (HFD) for 8 weeks. After 8 weeks, the HFD group was divided into two groups both treated via osmotic mini-pumps implanted subcutaneously: (1) vehicle group (the pumps contained 100 μl of DDW+2% Tween 80; n=9); (2) Lyso-DGTS group (the pumps contained 100 μl lyso-DGTS 1.4 mg/ml in DDW+2% Tween 80; n=1). The mice then continued with the same diet for another 4 weeks. The pumps injected 3.5 μl solution each day for 28 days until the end of the experiment. Blood was drawn and centrifuged at 2000 rpm for five minutes, and the serum was stored at −70° C. until the analyses. Clinical parameters were measured. Serum diluted by 20 with PBS and PON1 lactonase activity was measured using dihydrocumarine assay.
The effect of lyso-DGTS on lactonase PON1 activity was examined using Balb/c mice fed with HFD. […] At the end of the protocol, blood was withdrawn and clinical parameters and lactonase PON1 activity were measured. […] Lactonase PON1 activity of the mice serum was measured using dehydrocumarine assay.

[3] = test system: Human umbilical vein endothelial cells (HUVECs); assay: HDL-induced endothelial NO release, DAN assay; format: cell-based; details: HDL 50 μg/ml preincubated 3 h with 10, 20, 50 μg/ml; HUVECs 2 h
Description: HUVECs were stimulated for 2 h with HDL (50 μg/ml) preincubated with DMSO, lyso-DGTS and S1P at final concentrations of 10, 20, and 50 μg/ml for 3 h. Media were then collected and treated with nitrate reductase followed by analysis using the DAN assay. Data are expressed as NO concentration (μM) released by the cells. Each experiment was repeated separately at least three times. *p<0.05, ***p<0.0001 related to the control (HDL without lyso-DGTS or S1P). Statistics were analyzed using one-way annova Graphpad prism 5 software.
Human umbilical vein endothelial cells (HUVECs) were incubated for 2 hours with HDL preincubated with different concentration of lyso-DGTS or S1P for 3 hours, and NO production determined using 2,3-diaminonapthalene (DAN) assay.

[4] = test system: J774A.1 macrophages; assay: rePON1 influx to J774A.1 macrophages (FITC-rePON1, FACS); format: cell-based, murine; details: 16 h, 61.62 for rePON1-FITC alone
Description: rePON1 (2 mg/ml) was reacted with fluorescein isothiocyanate (FITC) (200 μg/ml) for 1 h at 37° C. in the dark in borate buffer (PH=8.6). Glycine 10 mM was added and the solution was dialyzed using PBS buffer to remove FITC excess. RePON1-FITC conjugate (50 μg/ml) was incubated with lyso-DGTS at different concentration (10, 20, 50 and 100 μg/ml) into RPMI for 2 h. The solution was added to J774A.1 macrophages and incubated for 16 h. Cells were washed three times with sterile PBS buffer (0.1% sodium azid, 0.2% bovine serum albumin (BSA)), harvested in PBS (buffer) and analyzed by fluorescence-activated cell sorting (FACS) (Facscalibur 4ca). Results are presented as mean fluorescence intensity (MFI).
RePON1 was labeled with FITC and incubated with lyso-DGTS at different concentrations (10, 20, 50, and 100 μg/ml) for 2 h. Each solution was added to J774A.1 macrophages and incubated at 37° C. for 16 h, and then analyzed by fluorescence-activated cell sorting (FACS). […] The MFI increased from 61.62 for rePON1-FITS alone to 131.02, 368.61, 386.46, and 517.45 for rePON1 incubated with lyso-DGTS at 10, 20, 50, and 100 μg/ml, respectively (FIG. 6B).

[5] = Clinical parameters of the in-vivo experiment (HFD fed Balb/c mice); set-up: unit not given here; details: lyso-DGTS via s.c. osmotic mini-pump, 28 days; for Glucose: p < 0.05 related to vehicle group
Description: as §1
The effect of lyso-DGTS on lactonase PON1 activity was examined using Balb/c mice fed with HFD. Three groups of Balb/c mice were used: 1) the “non” group […] mice which was fed with normal rodent diet for 12 weeks; 2) the “vehicle” group n=9 mice which was fed with HFD for 8 weeks and then continued with the same diet for another 4 weeks with the injection of DDW+2% Tween via osmotic mini-pumps implanted subcutaneously; and 3) the lyso-DGTS group n=1 mice which was fed similar to the vehicle group and injected with lyso-DGTS at 1.43 mg/ml in DDW+2% Tween 80 (FIG. 14). At the end of the protocol, blood was withdrawn and clinical parameters and lactonase PON1 activity were measured. […] Lactonase PON1 activity of the mice serum was measured using dehydrocumarine assay.

[6] = molecular target: PON1 (Homo sapiens, UniProt P27169); assay: PON1 binding to HDL (ratio HDL-bound PON1 vs. free PON1); details: data not shown
Sequence of PON1 (P27169 whole entry, species assumed): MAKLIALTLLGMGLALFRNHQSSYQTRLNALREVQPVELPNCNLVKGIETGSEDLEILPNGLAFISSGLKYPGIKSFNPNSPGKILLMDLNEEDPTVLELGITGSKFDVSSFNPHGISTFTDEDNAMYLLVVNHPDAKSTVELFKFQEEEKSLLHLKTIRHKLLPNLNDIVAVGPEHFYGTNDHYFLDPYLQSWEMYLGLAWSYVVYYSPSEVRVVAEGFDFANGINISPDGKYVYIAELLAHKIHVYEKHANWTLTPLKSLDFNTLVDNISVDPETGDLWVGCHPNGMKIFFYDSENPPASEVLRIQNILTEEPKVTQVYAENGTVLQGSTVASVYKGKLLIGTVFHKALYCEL

SMILES: CC/C=C\C/C=C\C/C=C\C/C=C\C/C=C\CCCC(=O)OCC(O)COCCC(C(=O)[O-])[N+](C)(C)C (centres unmarked) [lyso-DGTS, lyso-diacylglyceryltrimethylhornmoserine]
- enhancement of rePON1 ability to inhibit foam cell formation ([1]; 100 μg/ml lyso-DGTS vs rePON1 alone, not significant): ~10%
- reduction of oil red staining intensity ([1]; lyso-DGTS (50 μg/ml) alone, then ox-LDL 25 μg/ml 24 h): 32%
- increase of serum lactonase PON1 activity [2]: ~2.3 units
- effect on HDL ability to induce endothelial NO release [3]: significantly increased the HDL ability to induce endothelial NO release at a dose dependent manner
- mean fluorescence intensity (MFI) of FITC-rePON1 in cells ([4]; 10 μg/ml lyso-DGTS): 131.02
- mean fluorescence intensity (MFI) of FITC-rePON1 in cells ([4]; 20 μg/ml lyso-DGTS): 368.61
- mean fluorescence intensity (MFI) of FITC-rePON1 in cells ([4]; 50 μg/ml lyso-DGTS): 386.46
- mean fluorescence intensity (MFI) of FITC-rePON1 in cells ([4]; 100 μg/ml lyso-DGTS): 517.45
- Cholesterol [5]: 4.03 ± 0.40
- HDL [5]: 4.37 ± 0.42
- Triglycerides [5]: 0.84 ± 0.26
- Glucose [5]: 5.99±1.4
- Glucose ([5]; listed as Lyso-DGTS): 5.99 ± 1.4
- ratio between HDLbound-PON1 vs. free-PON1 [6]: did not change
